Assays:
[1] = tested on: T1 generation seedlings of GAT key plants, ZH11, CK+ (P450i2-30); assay: Bentazone spraying of T1 generation seedlings; type: in vivo, rice; details: 3 g/L bentazone
Method: In order to identify the working efficiency of herbicide sensitive elements in the T1 generation of the GAT transformants, a 3 g/L bentazone solution was prepared with 48% bentazone mother liquor (Changzhou Precision Biotechnology Co., Ltd.). Some plants in the positive strains screened by bispyribac-sodium in Example 5-1 were sprayed, and continuously observed after spraying. […] See Table 3 and FIG. 22 for specific results.
ZH11 is Resistance Control, CK+(P450i2-30) is the Sensitive Positive Control

[2] = tested on: GAT T0 generation transformants and wild-type control ZH11; assay: Bentazon sensitive phenotype, spraying of scribed leaf area, T0 generation; type: in vivo, rice
Method: In order to test the working efficiency of herbicide sensitive elements in the GAT system, after the identification of bispyribac-sodium resistance phenotype, a 3 g/L bentazone solution was prepared with 48% bentazone mother liquor (Changzhou Precision Biotechnology Co., Ltd.). The scribed area of plant leaves of surviving GAT T0 generation (347 strains) in the last spraying experiment with bispyribac-sodium and the wild-type control ZH11 were sprayed with the resultant solution, and were continuously observed after spraying. Some GAT transformants T0 had curly and yellow leaf tips on the third day after spraying. […] Meanwhile, 86 strains were highly resistant to bispyribac-sodium and highly sensitive to bentazone. Based on the similar analysis of the transformation events of the above bispyribac-sodium resistance strains, it can be seen that this experiment confirmed that the working efficiency of herbicide sensitive elements in the GAT system is high, and the created GAT seed breeding system can quickly and accurately identify the corresponding phenotype thereof.

[3] = strain 11-1 T1, 8 plants sprayed
[4] = strain 23-2 T1, 12 plants sprayed
[5] = strain 23 T1, 14 plants sprayed
[6] = strain 53-3 T1, 8 plants sprayed
[7] = strain 77-2 T1, 2 plants sprayed
[8] = strain 88-4 T1, 13 plants sprayed
[9] = strain 93-2 T1, 9 plants sprayed
[10] = strain 95-2 T1, 2 plants sprayed
[11] = strain 174-3 T1, 10 plants sprayed
[12] = strain 175-4 T1, 7 plants sprayed
[13] = strain CK + (P450i2-30) (sensitive positive control), 4 plants sprayed
[14] = strain ZH11 (resistance control), 4 plants sprayed
[15] = 347 GAT T0 strains, 3 g/L bentazone

`CC(C)N1C(=O)c2ccccc2NS1(=O)=O` [bentazone] was tested, and the “number of strains with individual plants slightly less sensitive, eventually died” value ([1]; T1 strains) was 5 strains, the “number of strains highly susceptible to wilt and death (highly sensitive)” value ([1]; bispyribac-sodium resistance T1 strains, 14th day) was 6 strains and the Highly sensitive ratio ([1]; strain 4 T1, 2 plants sprayed) was 1/2. For the same compound, the “Highly sensitive(dead)” value ([1]; strain 4 T1, 2 plants sprayed) was 1, the Low sensitivity ([1]; strain 4 T1, 2 plants sprayed) was 0 and the Medium sensitivity ([1]; strain 4 T1, 2 plants sprayed) was 1. For the same compound, the No phenotype ([1]; strain 4 T1, 2 plants sprayed) was 0, the Highly sensitive ratio ([1]; strain 7 T1, 15 plants sprayed) was 2/15 and the “Highly sensitive(dead)” value ([1]; strain 7 T1, 15 plants sprayed) was 2. The Low sensitivity ([1]; strain 7 T1, 15 plants sprayed) was 13, the Medium sensitivity ([1]; strain 7 T1, 15 plants sprayed) was 0 and the No phenotype ([1]; strain 7 T1, 15 plants sprayed) was 0. For the same compound, the Highly sensitive ratio [1, 3] was 8/8, the “Highly sensitive(dead)” value [1, 3] was 8 and the Low sensitivity [1, 3] was 0. For the same compound, the Medium sensitivity [1, 3] was 0, the No phenotype [1, 3] was 0 and the Highly sensitive ratio ([1]; strain 20 T1, 3 plants sprayed) was 2/3. For the same compound, the “Highly sensitive(dead)” value ([1]; strain 20 T1, 3 plants sprayed) was 2, the Low sensitivity ([1]; strain 20 T1, 3 plants sprayed) was 0 and the Medium sensitivity ([1]; strain 20 T1, 3 plants sprayed) was 1. The No phenotype ([1]; strain 20 T1, 3 plants sprayed) was 0, the Highly sensitive ratio [1, 4] was 11/12 and the “Highly sensitive(dead)” value [1, 4] was 11. For the same compound, the Low sensitivity [1, 4] was 0, the Medium sensitivity [1, 4] was 1 and the No phenotype [1, 4] was 0. For the same compound, the Highly sensitive ratio [1, 5] was 14/14, the “Highly sensitive(dead)” value [1, 5] was 14 and the Low sensitivity [1, 5] was 0. For the same compound, the Medium sensitivity [1, 5] was 0, the No phenotype [1, 5] was 0 and the Highly sensitive ratio ([1]; strain 28 T1, 7 plants sprayed) was 7/7. The “Highly sensitive(dead)” value ([1]; strain 28 T1, 7 plants sprayed) was 7, the Low sensitivity ([1]; strain 28 T1, 7 plants sprayed) was 0 and the Medium sensitivity ([1]; strain 28 T1, 7 plants sprayed) was 0. The No phenotype ([1]; strain 28 T1, 7 plants sprayed) was 0, the Highly sensitive ratio [1, 6] was 8/8 and the “Highly sensitive(dead)” value [1, 6] was 8. For the same compound, the Low sensitivity [1, 6] was 0, the Medium sensitivity [1, 6] was 0 and the No phenotype [1, 6] was 0. For the same compound, the Highly sensitive ratio [1, 7] was 2/2, the “Highly sensitive(dead)” value [1, 7] was 2 and the Low sensitivity [1, 7] was 0. For the same compound, the Medium sensitivity [1, 7] was 0, the No phenotype [1, 7] was 0 and the Highly sensitive ratio [1, 8] was 12/13. The “Highly sensitive(dead)” value [1, 8] was 12, the Low sensitivity [1, 8] was 0 and the Medium sensitivity [1, 8] was 1. For the same compound, the No phenotype [1, 8] was 0, the Highly sensitive ratio [1, 9] was 8/9 and the “Highly sensitive(dead)” value [1, 9] was 8. For the same compound, the Low sensitivity [1, 9] was 1, the Medium sensitivity [1, 9] was 0 and the No phenotype [1, 9] was 0. The Highly sensitive ratio [1, 10] was 2/2, the “Highly sensitive(dead)” value [1, 10] was 2 and the Low sensitivity [1, 10] was 0. The Medium sensitivity [1, 10] was 0, the No phenotype [1, 10] was 0 and the Highly sensitive ratio [1, 11] was 4/10. For the same compound, the “Highly sensitive(dead)” value [1, 11] was 4, the Low sensitivity [1, 11] was 6 and the Medium sensitivity [1, 11] was 0. For the same compound, the No phenotype [1, 11] was 0, the Highly sensitive ratio [1, 12] was 5/7 and the “Highly sensitive(dead)” value [1, 12] was 5. For the same compound, the Low sensitivity [1, 12] was 0, the Medium sensitivity [1, 12] was 2 and the No phenotype [1, 12] was 0. For the same compound, the Highly sensitive ratio [1, 13] was 4/4, the “Highly sensitive(dead)” value [1, 13] was 4 and the Low sensitivity [1, 13] was 0. The Medium sensitivity [1, 13] was 0, the No phenotype [1, 13] was 0 and the Highly sensitive ratio [1, 14] was 0/4. For the same compound, the “Highly sensitive(dead)” value [1, 14] was 0, the Low sensitivity [1, 14] was 0 and the Medium sensitivity [1, 14] was 0. The No phenotype [1, 14] was 4, the “number of low sensitive or non-phenotypic strains” value [2, 15] was 122 strains and the “number of strains withered severely then recovered (moderately sensitive)” value [2, 15] was 81 strains. For the same compound, the “number of strains with irreversible leaf wilt (highly sensitive)” value ([2]; 347 GAT T0 strains, 3 g/L bentazone, 7th to 14th day) was 144 strains and the “number of strains highly resistant to bispyribac-sodium and highly sensitive to bentazone” value ([2]; GAT T0 strains, 600 mg/L bispyribac-sodium then 3 g/L bentazone) was 86 strains.

Source: patent publication US12516346B2, “Intelligent genetic breeding and seed production system for crop cross breeding and hybrid seed production, and application thereof” (Hainan Bolian Technology Co., Ltd., priority 2020, dated 2026)
